# Assay results published in US20100119599A1 (ARCHER PHARMACEUTICALS, INC., priority 2006, published 2010).
# Experiments:
# Aβ1-40 = test: Measurement of Aβ1-40 in culture medium of 7W WT APP751 CHO cells by ELISA; assay type: cell-based, Chinese hamster; conditions: Cricetulus griseus; Table 1; 5 μM test compound; CHO cells stably transfected with human APP751; culture medium, ELISA; control DMSO; 0 = no detectable amount
# Aβ1-42 = test: Measurement of Aβ1-42 in culture medium of 7W WT APP751 CHO cells by ELISA; assay type: cell-based, Chinese hamster; conditions: Cricetulus griseus; Table 1; 5 μM test compound; CHO cells stably transfected with human APP751; culture medium, ELISA; control DMSO; 0 = no detectable amount; read-out: Aβ1-42 (% of control)
# 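Further: 5 µM test compound but RI-coded compounds at 10 µM for 24 hours.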
SMILES,activity at 5 µM (Aβ1-40) [%],activity at 5 µM (Aβ1-42) [%]
"CSc1ccc(C2C(C(=O)OCCOc3ccccc3)=C(C)NC3=C2C(=O)CCC3)cc1 (centres unmarked) [ST015072, 2-phenoxyethyl 2-methyl-4-(4-methylthiophenyl)-5-oxo-1,4,6,7,8-pentahydroquinoline-3-carboxylate]",19.3,59.4
"CCN(CC)c1ccc(C2C(C(=O)OCCOc3ccccc3)=C(C)NC3=C2C(=O)CC(C)(C)C3)cc1 (centres unmarked) [ST015075, 2-phenoxyethyl 4-[4-(diethylamino)phenyl]-2,7,7-trimethyl-5-oxo-1,4,6,7,8-pentahydroquinoline-3-carboxylate]",51.7,42.2
"CC1=C(C(=O)OCCc2ccccc2)C(c2ccc(C)cc2)C2=C(CCCC2=O)N1 (centres unmarked) [ST015076, 2-phenylethyl 2-methyl-4-(4-methylphenyl)-5-oxo-1,4,6,7,8-pentahydroquinoline-3-carboxylate]",58.9,98.6
"CC1=C(C(=O)OCCc2ccccc2)C(c2cccc(Cl)c2)C2=C(CC(C)(C)CC2=O)N1 (centres unmarked) [ST015084, 2-phenylethyl 4-(3-chlorophenyl)-2,7,7-trimethyl-5-oxo-1,4,6,7,8-pentahydroquinoline-3-carboxylate]",59.5,80.2
"CC1=C(C(=O)OCCc2ccccc2)C(c2ccccc2Cl)C2=C(CC(C)(C)CC2=O)N1 (centres unmarked) [ST015085, 2-phenylethyl 4-(2-chlorophenyl)-2,7,7-trimethyl-5-oxo-1,4,6,7,8-pentahydroquinoline-3-carboxylate]",69.9,72.9
"CCOc1ccc(C2C(C(=O)OCCc3ccccc3)=C(C)NC3=C2C(=O)CC(C)(C)C3)cc1 (centres unmarked) [ST015087, 2-phenylethyl 4-(4-ethoxyphenyl)-2,7,7-trimethyl-5-oxo-1,4,6,7,8-pentahydroquinoline-3-carboxylate]",35.3,43.7
"COc1ccc(C2C(C(=O)OCCc3ccccc3)=C(C)NC3=C2C(=O)CC(C)(C)C3)c(OC)c1 (centres unmarked) [ST015090, 2-phenylethyl 4-(2,4-dimethoxyphenyl)-2,7,7-trimethyl-5-oxo-1,4,6,7,8-pentahydroquinoline-3-carboxylate]",15.4,34.9
"CC1=C(C(=O)OCCOc2ccccc2)C(c2cccc(Cl)c2)C2=C(CCCC2=O)N1 (centres unmarked) [ST015091, 2-phenoxyethyl 4-(3-chlorophenyl)-2-methyl-5-oxo-1,4,6,7,8-pentahydroquinoline-3-carboxylate]",62.4,75.8
"CC1=C(C(=O)OCCOc2ccccc2)C(c2ccc(Cl)cc2)C2=C(CC(C)(C)CC2=O)N1 (centres unmarked) [ST015093, 2-phenoxyethyl 4-(4-chlorophenyl)-2,7,7-trimethyl-5-oxo-1,4,6,7,8-pentahydroquinoline-3-carboxylate]",0,0
"COc1cc(C2C(C(=O)OCCc3ccccc3)=C(C)NC3=C2C(=O)CC(C)(C)C3)ccc1O (centres unmarked) [ST015094, 2-phenylethyl 4-(4-hydroxy-3-methoxyphenyl)-2,7,7-trimethyl-5-oxo-1,4,6,7,8-pentahydroquinoline-3-carboxylate]",56.3,59.8
"CC1=C(C(=O)OCCOc2ccccc2)C(c2ccc(C)cc2)C2=C(CC(C)(C)CC2=O)N1 (centres unmarked) [ST015095, 2-phenoxyethyl 2,7,7-trimethyl-4-(4-methylphenyl)-5-oxo-1,4,6,7,8-pentahydroquinoline-3-carboxylate]",59.7,0
"CC1=C(C(=O)OCCOc2ccccc2)C(c2ccccc2Cl)C2=C(CC(C)(C)CC2=O)N1 (centres unmarked) [ST015096, 2-phenoxyethyl 4-(2-chlorophenyl)-2,7,7-trimethyl-5-oxo-1,4,6,7,8-pentahydroquinoline-3-carboxylate]",28.1,80
"CC1=C(C(=O)OCCc2ccccc2)C(c2ccc(Cl)c(Cl)c2)C2=C(CCCC2=O)N1 (centres unmarked) [ST015098, 2-phenylethyl 4-(3,4-dichlorophenyl)-2-methyl-5-oxo-1,4,6,7,8-pentahydroquinoline-3-carboxylate]",40.9,0
